Assay results as given in ChEMBL document CHEMBL1155105, “Synthesis of N-alkyl glycine amides as potent inhibitors of leukotriene A4 hydrolase” (Bioorg Med Chem Lett, 2008).

Experiments:
[1] = target: T1, Leukotriene A-4 hydrolase (Homo sapiens, UniProt P09960)
T1 sequence (P09960 whole entry): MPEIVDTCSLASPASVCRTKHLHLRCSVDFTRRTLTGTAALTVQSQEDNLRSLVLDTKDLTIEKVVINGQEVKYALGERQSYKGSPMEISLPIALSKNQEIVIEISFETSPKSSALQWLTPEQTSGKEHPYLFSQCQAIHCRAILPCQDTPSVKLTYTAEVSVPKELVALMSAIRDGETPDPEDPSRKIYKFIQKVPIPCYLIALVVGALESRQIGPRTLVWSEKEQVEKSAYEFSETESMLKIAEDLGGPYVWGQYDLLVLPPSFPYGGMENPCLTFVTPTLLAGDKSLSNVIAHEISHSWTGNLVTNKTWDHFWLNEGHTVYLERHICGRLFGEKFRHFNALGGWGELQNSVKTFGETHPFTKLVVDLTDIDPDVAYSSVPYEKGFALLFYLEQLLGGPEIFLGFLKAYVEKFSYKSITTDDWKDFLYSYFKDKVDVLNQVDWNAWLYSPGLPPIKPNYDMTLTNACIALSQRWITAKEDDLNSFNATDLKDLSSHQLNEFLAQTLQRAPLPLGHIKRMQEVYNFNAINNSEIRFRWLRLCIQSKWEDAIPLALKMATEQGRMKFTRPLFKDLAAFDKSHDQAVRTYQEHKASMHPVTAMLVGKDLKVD

[2] = target: T1, Leukotriene A-4 hydrolase; remark: listed apart in the source
[3] = Half life in iv dosed rat; format: ADME, organism-based; conditions: in vivo
[4] = Clearance in iv dosed rat; format: ADME, organism-based; conditions: in vivo
[5] = Oral bioavailability in rat; format: ADME, organism-based; conditions: in vivo
[6] = Metabolic stability in rat microsomes assessed as compound remaining after 1 hr; format: ADME, Microsome; conditions: read-out: Stability
[7] = target: T1, Leukotriene A-4 hydrolase; remark: listed apart in the source

Compound | IC50 [1] [nM] | IC50 [2] [nM] | further results
O=C(CN1CC2CC1CN2Cc1ccc(C(=O)O)cc1)Nc1ccc(Oc2ccccc2)cc1 (stereo not given) | 44 | 240 | –
CN(CCCN(C)CC1CCC(C(=O)O)CC1)CC(=O)Nc1ccc(Oc2ccccc2)cc1 (stereo not given) | 25 | 430 | –
CN(CCCN(C)Cc1ccc(C(=O)O)cc1)CC(=O)Nc1ccc(Oc2ccc(-c3ncco3)cc2)cc1 | 5 | 60 | –
CN(CCCN(C)CC(=O)Nc1ccc(Oc2ccccc2)cc1)CCc1ccc(C(=O)O)cc1 | 3 | 80 | –
CN(CCCN(C)Cc1ccc(C(=O)O)o1)CC(=O)Nc1ccc(Oc2ccccc2)cc1 | 28 | 440 | –
CN(C)CCCN(C)CC(=O)Nc1ccc(Oc2ccccc2)cc1 | 160 | 135 | remaining at 1 h [6]: < 33%
CN(Cc1ccc(C(=O)O)cc1)C1CCCN(CC(=O)Nc2ccc(Oc3ccccc3)cc2)CC1 (stereo not given) | 140 | 220 | –
CN(Cc1ccc(C(=O)O)cc1)CC1CCCCN1CC(=O)Nc1ccc(Oc2ccccc2)cc1 (stereo in doubt; 4o) | 16 | 60 | –
O=C(CN1CCCN(Cc2ccc(C(=O)O)cc2)CC1)Nc1ccc(Oc2ccccc2)cc1 | 70 | 180 | –
CN(CC(=O)Nc1ccc(Oc2ccccc2)cc1)C1CCCN(Cc2ccc(C(=O)O)cc2)CC1 (stereo not given) | 160 | 380 | –
CN(CCN(C)Cc1ccc(C(=O)O)cc1)CC(=O)Nc1ccc(Oc2ccccc2)cc1 | 15 | 140 | –
CN(CCCN(C)Cc1ccc(C(=O)O)cc1)CC(=O)Nc1ccc(OCC(O)c2ccccc2)cc1 (stereo not given) | 19 | 210 | –
CN(Cc1ccc(C(=O)O)cc1)C1CCN(CC(=O)Nc2ccc(Oc3ccccc3)cc2)CC1 | 490 | 260 | –
CN(CCCN(C)Cc1ccc(C(=O)O)cc1)CC(=O)Nc1ccc(Oc2ccc(F)cc2)cc1 | 6 | 120 | –
CN(Cc1ccc(C(=O)O)cc1)CC1CCCN1CC(=O)Nc1ccc(Oc2ccccc2)cc1 (stereo in doubt; 4s) | 17 | 60 | –
CN(CCCN(C)Cc1ccc(C(=O)O)cc1)CC(=O)Nc1ccc(Cc2ccccc2)cc1 | 3 | 70 | –
CN(Cc1ccc(C(=O)O)cc1)CC1CCCCN1CC(=O)Nc1ccc(Oc2ccccc2)cc1 (stereo in doubt; 4n) | 17 | 100 | –
CN(CCCN(C)Cc1ccc(-c2nnn[nH]2)cc1)CC(=O)Nc1ccc(Oc2ccccc2)cc1 | 4 | 250 | –
CN(Cc1ccc(C(=O)O)cc1)CC1CCCN1CC(=O)Nc1ccc(Oc2ccccc2)cc1 (stereo in doubt; 4r) | 26 | – | IC50 [7]: 60 nM

More lines, main results first:

IC50 [1] [nM] | IC50 [2] [nM] | Compound | further results
7 | 160 | CN(CCCN(C)Cc1ccc(C(=O)O)cc1F)CC(=O)Nc1ccc(Oc2ccccc2)cc1 | –
16 | 230 | CN(CCCN(C)Cc1ccc(C(=O)O)cc1)CC(=O)Nc1ccc(Oc2ccccc2F)cc1 | –
18 | 230 | CN(CCCCC(=O)O)CCCN(C)CC(=O)Nc1ccc(Oc2ccccc2)cc1 | –
100 | 200 | CN(CC(=O)Nc1ccc(Oc2ccccc2)cc1)C[C@@H]1CCCN1Cc1ccc(C(=O)O)cc1 | –
1000 | > 1000 | O=C(CN1CCN(Cc2ccc(C(=O)O)cc2)CC1)Nc1ccc(Oc2ccccc2)cc1 | –
7 | 30 | CN(CC(=O)Nc1ccc(Oc2ccccc2)cc1)C[C@H]1CCCN1Cc1ccc(C(=O)O)cc1 | half-life [3]: 2.6 h; clearance [4]: 28 mL/min/kg; bioavailability [5]: 45%
370 | > 1000 | O=C(CNCCCNCc1ccc(C(=O)O)cc1)Nc1ccc(Oc2ccccc2)cc1 | –
15 | 290 | CN(CCCN(C)Cc1ccc(C(=O)O)cc1[N+](=O)[O-])CC(=O)Nc1ccc(Oc2ccccc2)cc1 | –
330 | > 1000 | CN(CCCNCC(=O)Nc1ccc(Oc2ccccc2)cc1)Cc1ccc(C(=O)O)cc1 | –
17 | 90 | CN(CCCN(C)Cc1ccc(C(=O)O)cc1)CC(=O)Nc1ccc(Oc2ccc(Cl)cc2)cc1 | –
10 | 360 | CN(CCCN(C)Cc1ccc(C(=O)O)c(Br)c1)CC(=O)Nc1ccc(Oc2ccccc2)cc1 | –
19 | 420 | CN(CCCNCc1ccc(C(=O)O)cc1)CC(=O)Nc1ccc(Oc2ccccc2)cc1 | –
90 | 350 | CN(CCCN(C)Cc1ccccc1)CC(=O)Nc1ccc(Oc2ccccc2)cc1 | remaining at 1 h [6]: < 33%
6 | 340 | CN(CCCN(C)Cc1ccc(C(=O)O)c(F)c1)CC(=O)Nc1ccc(Oc2ccccc2)cc1 | –
6 | 120 | CN(CCCN(C)Cc1ccc(C(=O)O)cc1)CC(=O)Nc1ccc(Oc2ccccc2)cc1 | remaining at 1 h [6]: > 90%; half-life [3]: 0.9 h; clearance [4]: 38 mL/min/kg; bioavailability [5]: 45%
57 | 220 | CN(CC(=O)Nc1ccc(Oc2ccccc2)cc1)C1CCN(Cc2ccc(C(=O)O)cc2)C1 (stereo in doubt; 4u) | –
120 | 180 | CN(CC(=O)Nc1ccc(Oc2ccccc2)cc1)C1CCN(Cc2ccc(C(=O)O)cc2)C1 (stereo in doubt; 4t) | –
33 | > 1000 | CN(CCCN(C)Cc1ccc(S(N)(=O)=O)cc1)CC(=O)Nc1ccc(Oc2ccccc2)cc1 | –
110 | 1500 | CN(CCCC(=O)O)CCCN(C)CC(=O)Nc1ccc(Oc2ccccc2)cc1 | –
